Measurements: PubChem BioAssay (NCI)
Where “and” joins values, the source holds several entries; their conditions need not be identical. Equal values may be shown once.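 Exposure lasted 48 hours, with cells grown in 96-well plates and compounds tested at five concentrations. At the GI50, growth is halved. TGI: total growth inhibition.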

Key:
Experiment in all cases: NCI-60 cell line screen, 48 h
[1] = tested on: ACHN renal
[2] = tested on: OVCAR-3 ovarian
[3] = tested on: MDA-MB-435
[4] = tested on: CAKI-1 renal
[5] = tested on: COLO 205 colon
[6] = tested on: SF-268 CNS
[7] = tested on: HS 578T breast
[8] = tested on: MOLT-4 leukemia
[9] = tested on: SF-539 CNS
[10] = tested on: 786-0 renal
[11] = tested on: MDA-MB-231 breast

SMILES	TGI [1]	TGI [2] [µM]	TGI [3] [µM]	TGI [4] [µM]	TGI [5] [µM]	TGI [6] [µM]	TGI [7] [µM]	TGI [8] [µM]	TGI [9] [µM]	TGI [10]	GI50 [11] [nM]	TGI [11] [µM]	GI50 [1] [nM]	GI50 [2] [nM]	GI50 [3] [nM]	GI50 [4] [nM]	GI50 [5] [nM]	GI50 [6] [nM]	GI50 [8] [nM]	GI50 [9] [nM]
O=C(O)CSCc1cc2c(O)c(c1)Cc1cc(CSCC(=O)O)cc(c1O)Cc1cc(CSCC(=O)O)cc(c1O)Cc1cc(CSCC(=O)O)cc(c1O)C2	> 100 µM	> 100	> 100	> 100	> 100	> 100	> 100	> 100	> 100	> 100 µM	–	–	–	–	–	–	–	–	–	–
COc1cc([C@@H]2c3cc4c(c(O)c3C[C@H]3COC(=O)[C@@H]32)OCO4)cc(OC)c1OC	121 µM and > 100 µM	–	0.000802	–	–	–	–	–	–	46.8 µM and > 100 µM	392	> 100	1430	89	0.192	222	239	501	539	65
COC(=O)[C@H](Cc1ccccc1)NC(=O)/C(=C/C(C)C)NC(=O)[C@H](CCSC)NC=O	> 100 µM	> 100	–	> 100	> 100	> 100	–	> 100	> 100	> 100 µM	–	–	–	–	–	–	–	–	–	–
c1ccc2c(CN3CCN(Cc4c[nH]c5ccccc45)CC3)c[nH]c2c1	40.6 µM	35.6	32.4	69.4	20.8	36	36.2	–	–	31.6 µM	–	31.2	–	–	–	–	–	–	–	–
CCN1CCCC(C#N)(c2ccccc2)CC1 (stereo not given)	> 100 µM	–	–	> 100	> 100	> 100	> 100	> 100	–	> 100 µM	–	–	–	–	–	–	–	–	–	–
CCCCc1ccc(Nc2nc(Cl)c3ncn(COCCOC(C)=O)c3n2)cc1	32.7 µM	43.4	33.1	–	48.5	36.9	52.7	61.8	63.3	29.5 µM	–	30.6	–	–	–	–	–	–	–	–
O=C(CC(CC(=O)Oc1c(Br)cc(Br)cc1C(=O)O)C(=O)Oc1c(Br)cc(Br)cc1C(=O)O)Oc1c(Br)cc(Br)cc1C(=O)O	> 100 µM	> 100	–	> 100	> 100	> 100	–	> 100	> 100	> 100 µM	–	–	–	–	–	–	–	–	–	–
O=C1C(C(O)(C(F)(F)Cl)C(F)(F)Cl)CCCC1C(O)(C(F)(F)Cl)C(F)(F)Cl (stereo not given)	> 10 µM	> 10	> 10	> 10	> 10	> 10	> 10	–	> 10	> 10 µM	–	> 10	–	–	–	–	–	–	–	–
CCOc1ccc(N/C(=C(/C(Cl)=C(/Cl)Nc2ccccc2)[N+](=O)[O-])n2nnc3ccccc32)cc1	> 100 µM	80.8	87.5	60.4	50.6	53.4	–	> 100	–	62.3 µM	–	58.1	–	–	–	–	–	–	–	–
CC(C)C1OC(N)=C(C#N)C1(C#N)C#N (stereo not given)	> 100 µM	–	> 100	13.5	> 100	> 100	> 100	–	> 100	> 100 µM	–	> 100	–	–	–	–	–	–	–	–
O=C1NC(=S)N/C1=C\c1cc2c(=O)c3ccccc3sc2s1	> 100 µM	> 100	> 100	> 100	> 100	> 100	> 100	69.5	–	> 100 µM	–	> 100	–	–	–	–	–	–	–	–
Cc1[nH]c(=O)nc2c1C(NCCCN(C)C)c1cc(Cl)ccc1N2 (stereo not given)	30.2 µM	33.6	–	–	26	30.5	–	44.6	26.3	27.7 µM	–	–	–	–	–	–	–	–	–	–
Cc1cc([N+](=O)[O-])ccc1Sc1c2ccccc2nc2cc(Cl)ccc12	> 100 µM	> 100	–	84	> 100	89.5	–	93.7	57.6	> 100 µM	–	–	–	–	–	–	–	–	–	–
COC(=O)CCC(NC(=S)N/N=C/c1ccccn1)C(=O)OC (stereo not given)	> 100 µM	> 100	–	–	> 100	> 100	–	> 100	> 100	> 100 µM	–	–	–	–	–	–	–	–	–	–
O=C1c2cccnc2S(=O)(=O)N1c1ccc(Oc2ccccc2)cc1	> 100 µM	> 100	> 100	> 100	> 100	> 100	–	> 100	> 100	> 100 µM	–	> 100	–	–	–	–	–	–	–	–
CC1=NN(C(=O)c2ccccc2O)C(=O)/C1=C/c1cccc(O)c1	> 100 µM	–	–	> 100	> 86.9	> 100	–	> 100	4.29	> 100 µM	–	> 100	–	–	–	–	–	–	–	–
c1cnn(C23C4C5C6C4C2C6C53)c1 (stereo not given)	> 100 µM	–	> 100	–	> 100	> 100	> 100	> 100	> 100	> 100 µM	–	> 100	–	–	–	–	–	–	–	–
CC(=O)OC1CC2CCN3C(=O)c4cc5c(cc4[C@H](C1OC(C)=O)C23)OCO5 (stereo not given in full)	> 100 µM	> 100	–	–	> 100	> 100	–	> 100	> 100	> 100 µM	–	–	–	–	–	–	–	–	–	–
CC(C)(C)OC(=O)N[C@H]1CC(O)c2ccccc2N(CC(=O)O)C1=O (stereo not given in full)	> 100 µM	> 100	–	> 100	> 100	> 100	–	> 100	> 100	> 100 µM	–	–	–	–	–	–	–	–	–	–
O=C(NC(=S)Nc1ccc2c(c1)Sc1ccccc1O2)c1ccc([N+](=O)[O-])cc1	> 100 µM	> 100	> 100	> 100	> 100	> 100	> 100	–	> 100	> 100 µM	–	> 100	–	–	–	–	–	–	–	–
CCN(CC)Cc1cc(Nc2c3ccccc3nc3c2[nH]c2ccccc23)cc(CN(CC)CC)c1O	3.48 µM	–	2.04	4.26	1.74	4.73	4.71	–	2.29	0.974 µM	–	2.62	–	–	–	–	–	–	–	–
COc1ccc(NC(=S)N/N=C\c2ccc(NC(C)=O)cc2)cc1	> 100 µM	> 100	> 100	> 100	> 100	–	> 100	> 100	–	> 100 µM	–	> 100	–	–	–	–	–	–	–	–
